In ChEMBL document CHEMBL1201862, “PubChem BioAssay data set” (2004):
Activity calls are given as the source filed them.

Experiments:
Cytochrome P450 2C19 = Cytochrome P450 2C19 (Homo sapiens, UniProt P33261); assay: qHTS Assay for Inhibitors and Substrates of Cytochrome P450 2C19. [Related pubchem assays: 410 ]; type: ADME; conditions: read-out: Potency
Cytochrome P450 2D6 = Cytochrome P450 2D6 (Homo sapiens, UniProt P10635); assay: qHTS Assay for Inhibitors and Substrates of Cytochrome P450 2D6. [Related pubchem assays: 410 ]; type: ADME; conditions: read-out: Potency
[1] = molecular target: Polyadenylate-binding protein 1 (Homo sapiens, UniProt P11940); assay: blockers of PABP interaction with poly(A) – biochemical, fluorescence polarization, […] (AID 2014)
Polyadenylate-binding protein 1, sequence (P11940 whole entry): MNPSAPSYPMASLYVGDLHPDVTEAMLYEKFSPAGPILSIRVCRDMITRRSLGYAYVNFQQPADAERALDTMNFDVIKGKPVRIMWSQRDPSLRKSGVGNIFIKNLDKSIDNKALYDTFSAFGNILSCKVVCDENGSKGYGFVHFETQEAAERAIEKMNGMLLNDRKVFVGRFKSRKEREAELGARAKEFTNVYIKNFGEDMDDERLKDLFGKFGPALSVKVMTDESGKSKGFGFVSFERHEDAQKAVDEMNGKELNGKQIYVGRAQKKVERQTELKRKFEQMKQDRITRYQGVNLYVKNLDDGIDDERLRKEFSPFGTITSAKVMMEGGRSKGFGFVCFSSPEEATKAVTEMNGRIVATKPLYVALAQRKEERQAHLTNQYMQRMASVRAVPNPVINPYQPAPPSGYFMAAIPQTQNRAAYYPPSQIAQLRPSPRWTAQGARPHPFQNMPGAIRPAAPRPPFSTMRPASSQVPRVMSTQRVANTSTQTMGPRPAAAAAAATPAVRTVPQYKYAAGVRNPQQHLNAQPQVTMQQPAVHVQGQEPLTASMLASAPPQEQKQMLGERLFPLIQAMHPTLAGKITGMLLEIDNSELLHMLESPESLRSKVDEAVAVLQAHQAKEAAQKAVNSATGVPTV

[2] = molecular target: Eukaryotic translation initiation factor 4H (Homo sapiens, UniProt Q15056); assay: eIF4H binding inhibition – biochemical, uHTS, fluorescence polarization, translation initiation inhibitor project, primary screen (AID 2012)
[3] = molecular target: DNA dC->dU-editing enzyme APOBEC-3A (Homo sapiens, UniProt P31941); assay: Dose Response confirmation of small molecule APOBEC3A DNA Deaminase Inhibitors via a fluorescence-based single-stranded DNA deaminase assay. [Related pubchem assays (depositor defined):AID493011, AID493024]; type: functional
DNA dC->dU-editing enzyme APOBEC-3A, sequence (P31941 whole entry): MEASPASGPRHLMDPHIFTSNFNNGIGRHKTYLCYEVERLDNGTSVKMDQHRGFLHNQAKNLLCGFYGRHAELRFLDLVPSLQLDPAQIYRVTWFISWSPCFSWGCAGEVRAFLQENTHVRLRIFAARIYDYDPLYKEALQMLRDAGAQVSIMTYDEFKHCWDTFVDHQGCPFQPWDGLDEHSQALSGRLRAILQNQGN

[4] = molecular target: DNA dC->dU-editing enzyme APOBEC-3G (Homo sapiens, UniProt Q9HC16); type: functional;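 also: Dose-response counterscreen measuring inhibition of APOBEC3G DNA deaminase activity, run while confirming APOBEC3A inhibitors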
[5] = molecular target: Mothers against decapentaplegic homolog 3 (Homo sapiens, UniProt P84022); assay: blockers of Smad3 complex formation in lysate – cell lysate, secondary confirmation, chemiluminescent ELISA, HEK293 lysate, dose response (AID 1058); type: functional
[6] = molecular target: Eukaryotic translation initiation factor 4E (Mus musculus, UniProt P63073); assay: blockers of eIF4G binding by eIF4E – biochemical, TR-FRET, dose response (AID 855); type: functional;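 also: potency for disrupting eIF4E binding to eIF4GI seen as loss of FRET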
[7] = molecular target: T1, Eukaryotic translation initiation factor 2-alpha kinase 3 (Homo sapiens, UniProt Q9NZJ5); assay: Dose response cell-based high-throughput screening assay to measure PERK inhibition. [Related pubchem assays: 1416 ]; type: functional
T1 sequence (Q9NZJ5 whole entry): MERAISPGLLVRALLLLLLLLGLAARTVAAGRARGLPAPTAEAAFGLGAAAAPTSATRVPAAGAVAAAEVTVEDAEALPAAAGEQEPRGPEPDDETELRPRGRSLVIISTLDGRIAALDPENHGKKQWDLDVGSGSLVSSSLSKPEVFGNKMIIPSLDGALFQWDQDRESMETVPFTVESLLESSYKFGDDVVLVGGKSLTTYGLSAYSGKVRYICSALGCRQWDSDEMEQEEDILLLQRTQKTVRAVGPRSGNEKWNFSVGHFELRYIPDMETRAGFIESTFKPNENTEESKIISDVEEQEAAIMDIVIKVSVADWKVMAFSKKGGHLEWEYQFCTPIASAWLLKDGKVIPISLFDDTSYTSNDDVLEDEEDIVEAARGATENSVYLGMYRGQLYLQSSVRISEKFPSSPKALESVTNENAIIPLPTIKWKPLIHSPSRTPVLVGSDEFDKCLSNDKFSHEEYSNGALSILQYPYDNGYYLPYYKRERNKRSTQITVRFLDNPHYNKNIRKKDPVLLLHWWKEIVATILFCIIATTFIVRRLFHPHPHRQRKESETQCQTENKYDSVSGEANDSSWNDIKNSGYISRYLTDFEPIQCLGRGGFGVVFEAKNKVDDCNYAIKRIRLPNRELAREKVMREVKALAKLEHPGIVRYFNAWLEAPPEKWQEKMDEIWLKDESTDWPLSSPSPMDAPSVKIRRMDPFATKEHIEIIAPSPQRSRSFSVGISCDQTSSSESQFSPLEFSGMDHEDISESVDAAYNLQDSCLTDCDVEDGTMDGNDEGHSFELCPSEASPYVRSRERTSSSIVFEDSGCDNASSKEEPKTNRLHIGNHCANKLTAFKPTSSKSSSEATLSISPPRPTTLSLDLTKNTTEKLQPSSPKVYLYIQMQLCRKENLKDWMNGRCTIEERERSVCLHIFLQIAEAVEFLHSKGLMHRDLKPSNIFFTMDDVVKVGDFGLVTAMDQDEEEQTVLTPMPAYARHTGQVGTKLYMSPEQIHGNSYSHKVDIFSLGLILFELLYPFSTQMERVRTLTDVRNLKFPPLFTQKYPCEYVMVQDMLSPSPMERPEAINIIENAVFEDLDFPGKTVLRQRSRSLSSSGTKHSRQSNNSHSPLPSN

[8] = molecular target: T2, Short transient receptor potential channel 4 (Mus musculus, UniProt Q9QUQ5); assay: block of DAMGO-driven TRPC4 calcium entry – cell-based, HEK293 TRPC4/mu-opioid, Fluo-4 calcium, dose response (AID 434942); type: functional;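 also: potency of inhibitors blocking the TRPC4 calcium response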
T2 sequence (Q9QUQ5 whole entry): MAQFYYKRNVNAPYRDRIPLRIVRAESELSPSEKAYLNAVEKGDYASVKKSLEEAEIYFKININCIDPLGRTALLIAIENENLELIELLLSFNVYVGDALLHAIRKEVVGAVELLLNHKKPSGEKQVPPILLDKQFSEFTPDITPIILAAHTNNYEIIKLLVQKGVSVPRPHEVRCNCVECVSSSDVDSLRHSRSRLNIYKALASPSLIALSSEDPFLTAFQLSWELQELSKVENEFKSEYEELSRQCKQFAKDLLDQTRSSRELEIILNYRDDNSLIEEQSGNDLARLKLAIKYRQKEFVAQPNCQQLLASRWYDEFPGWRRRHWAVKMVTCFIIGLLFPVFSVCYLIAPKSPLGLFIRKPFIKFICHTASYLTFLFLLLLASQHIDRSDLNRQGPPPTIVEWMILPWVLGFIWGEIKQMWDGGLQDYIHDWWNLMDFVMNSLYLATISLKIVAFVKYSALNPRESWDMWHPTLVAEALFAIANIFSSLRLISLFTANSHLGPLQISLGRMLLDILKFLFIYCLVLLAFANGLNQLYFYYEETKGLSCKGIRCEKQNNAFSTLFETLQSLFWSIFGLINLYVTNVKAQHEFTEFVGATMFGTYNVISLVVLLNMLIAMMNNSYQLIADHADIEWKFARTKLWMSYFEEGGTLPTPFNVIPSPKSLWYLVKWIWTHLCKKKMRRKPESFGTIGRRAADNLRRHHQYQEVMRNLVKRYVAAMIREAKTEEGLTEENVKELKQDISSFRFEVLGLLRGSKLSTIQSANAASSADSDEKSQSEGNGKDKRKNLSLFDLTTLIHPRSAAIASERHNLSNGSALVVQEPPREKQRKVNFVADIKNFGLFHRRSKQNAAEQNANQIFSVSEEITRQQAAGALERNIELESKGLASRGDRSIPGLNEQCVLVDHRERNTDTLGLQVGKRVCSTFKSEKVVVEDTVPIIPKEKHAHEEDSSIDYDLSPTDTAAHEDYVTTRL

[9] = molecular target: T1, Eukaryotic translation initiation factor 2-alpha kinase 3; assay: Counterscreen assay for PERK inhibitors: Dose response cell-based high throughput screening assay to measure inhibition of PERK at 6 hours. [Related pubchem assays: 1522, 1416 ]; type: functional
[10] = Counterscreen for IDE inhibitors: Luminescence-based cell-based high throughput dose response assay to identify compounds that are cytotoxic to HEK cells. [Related pubchem assays: 434962 (Primary screen (IDE inhibitors in singlicate)), 449730 (Counterscreen (Cytotoxicity in triplicate)), 435028 (Confirmation (IDE inhibitors in triplicate)) …; type: functional; conditions: HEK293
[11] = molecular target: T3, Sentrin-specific protease 1 (Homo sapiens, UniProt Q9P0U3); assay: Dose response confirmation of small molecule inhibitors of the catalytic domain of the SUMO protease, SENP1 in a FRET assay.; type: functional; conditions: read-out: IC50_Mean
T3 sequence (Q9P0U3 whole entry): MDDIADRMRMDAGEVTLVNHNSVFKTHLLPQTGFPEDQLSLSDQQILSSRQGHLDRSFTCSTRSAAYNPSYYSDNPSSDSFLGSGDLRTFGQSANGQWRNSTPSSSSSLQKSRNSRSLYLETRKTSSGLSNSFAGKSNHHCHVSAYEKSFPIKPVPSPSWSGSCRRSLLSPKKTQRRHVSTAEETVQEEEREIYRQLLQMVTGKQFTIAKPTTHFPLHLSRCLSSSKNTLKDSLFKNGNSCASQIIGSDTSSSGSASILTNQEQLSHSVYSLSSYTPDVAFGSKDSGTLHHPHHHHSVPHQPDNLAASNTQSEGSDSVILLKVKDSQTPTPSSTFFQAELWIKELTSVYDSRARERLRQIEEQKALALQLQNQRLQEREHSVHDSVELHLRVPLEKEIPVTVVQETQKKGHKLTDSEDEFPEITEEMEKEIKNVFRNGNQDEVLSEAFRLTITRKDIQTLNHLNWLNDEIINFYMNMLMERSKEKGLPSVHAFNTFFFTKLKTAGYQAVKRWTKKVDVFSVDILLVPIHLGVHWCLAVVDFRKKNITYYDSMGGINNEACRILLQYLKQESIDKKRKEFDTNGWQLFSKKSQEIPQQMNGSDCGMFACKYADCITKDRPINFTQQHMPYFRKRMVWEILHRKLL

Insulin-degrading enzyme = molecular target: T4, Insulin-degrading enzyme (Homo sapiens, UniProt P14735); assay: Dose Response: Fluorescence polarization-based cell-based high throughput dose response assay for inhibitors of insulin-degrading enzyme (IDE). [Related pubchem assays: 434962 (Primary screen (IDE inhibitors in singlicate)), 449730 (Counterscreen (Cytotoxicity in triplicate)), 435028 (Confirmation (IDE inhibitors in triplicate)), 434984 (Summary …; type: functional
T4 sequence (P14735 whole entry): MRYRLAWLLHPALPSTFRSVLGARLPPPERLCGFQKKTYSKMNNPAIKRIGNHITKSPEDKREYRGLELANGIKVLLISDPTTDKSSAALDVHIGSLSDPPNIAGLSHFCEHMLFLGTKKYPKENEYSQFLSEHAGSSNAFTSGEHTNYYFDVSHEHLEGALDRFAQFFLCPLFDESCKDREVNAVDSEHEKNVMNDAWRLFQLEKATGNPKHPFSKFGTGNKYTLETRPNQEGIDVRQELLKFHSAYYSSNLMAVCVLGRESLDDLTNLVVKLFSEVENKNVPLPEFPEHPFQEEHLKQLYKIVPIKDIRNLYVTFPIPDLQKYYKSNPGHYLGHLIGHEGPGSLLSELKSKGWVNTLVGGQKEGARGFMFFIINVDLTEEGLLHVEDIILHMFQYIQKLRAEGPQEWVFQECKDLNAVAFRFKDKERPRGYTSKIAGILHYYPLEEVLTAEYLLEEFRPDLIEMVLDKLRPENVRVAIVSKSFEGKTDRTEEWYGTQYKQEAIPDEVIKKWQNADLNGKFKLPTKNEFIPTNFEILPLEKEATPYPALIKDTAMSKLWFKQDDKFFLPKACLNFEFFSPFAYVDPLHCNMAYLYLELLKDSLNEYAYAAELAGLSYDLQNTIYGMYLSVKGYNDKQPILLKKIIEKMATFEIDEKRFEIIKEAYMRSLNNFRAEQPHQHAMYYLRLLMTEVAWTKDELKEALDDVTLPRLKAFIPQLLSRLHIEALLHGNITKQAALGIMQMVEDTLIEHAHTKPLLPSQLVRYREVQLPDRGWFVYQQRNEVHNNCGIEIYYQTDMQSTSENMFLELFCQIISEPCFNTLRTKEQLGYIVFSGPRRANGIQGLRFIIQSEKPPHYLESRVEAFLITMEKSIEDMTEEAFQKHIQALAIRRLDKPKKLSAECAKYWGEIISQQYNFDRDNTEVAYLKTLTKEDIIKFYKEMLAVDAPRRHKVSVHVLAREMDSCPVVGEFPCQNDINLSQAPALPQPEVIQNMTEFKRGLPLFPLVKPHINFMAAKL

[12] = molecular target: T3, Sentrin-specific protease 1; assay: SENP1 catalytic domain blockers, concentration series – biochemical, kinetic FRET, dose response (AID 651697); type: functional; conditions: read-out: IC50_Mean
Bcl-2-like protein 1 = Bcl-2-like protein 1 (Homo sapiens, UniProt Q07817); assay: blockers of BCLXL peptide binding – biochemical, fluorescence polarization, 1536-well, selectivity assay for MCL1 inhibitor project, dose response (AID 2218)
Bcl-2-like protein 1, sequence (Q07817 whole entry): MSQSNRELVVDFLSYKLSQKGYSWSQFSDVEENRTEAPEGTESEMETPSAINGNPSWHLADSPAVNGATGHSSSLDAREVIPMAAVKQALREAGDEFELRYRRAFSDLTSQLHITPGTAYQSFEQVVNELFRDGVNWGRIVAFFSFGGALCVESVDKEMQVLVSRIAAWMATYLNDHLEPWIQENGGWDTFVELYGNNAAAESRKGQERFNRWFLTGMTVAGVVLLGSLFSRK

Genome polyprotein = Genome polyprotein (Hepatitis C virus, UniProt Q2Q167); assay: disruption of hepatitis C core self-association – biochemical, TR-FRET, dose response (AID 2159); design: species or system Hepacivirus hominis;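 also: blocks dimerization of HCV core protein measured by TR-FRET between tagged core106 pairs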
Genome polyprotein, sequence (Q2Q167 whole entry): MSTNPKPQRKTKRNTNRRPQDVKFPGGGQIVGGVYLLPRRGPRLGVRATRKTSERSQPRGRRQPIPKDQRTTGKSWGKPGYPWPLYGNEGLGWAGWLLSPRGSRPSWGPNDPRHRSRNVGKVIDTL

[13] = molecular target: T5, Heat shock 70 kDa protein 1A (Homo sapiens, UniProt P0DMV8); assay: small molecules displacing fluorescent ligand from Hsp70 – biochemical, fluorescence polarization, primary screen (AID 583)
T5 sequence (P0DMV8 whole entry): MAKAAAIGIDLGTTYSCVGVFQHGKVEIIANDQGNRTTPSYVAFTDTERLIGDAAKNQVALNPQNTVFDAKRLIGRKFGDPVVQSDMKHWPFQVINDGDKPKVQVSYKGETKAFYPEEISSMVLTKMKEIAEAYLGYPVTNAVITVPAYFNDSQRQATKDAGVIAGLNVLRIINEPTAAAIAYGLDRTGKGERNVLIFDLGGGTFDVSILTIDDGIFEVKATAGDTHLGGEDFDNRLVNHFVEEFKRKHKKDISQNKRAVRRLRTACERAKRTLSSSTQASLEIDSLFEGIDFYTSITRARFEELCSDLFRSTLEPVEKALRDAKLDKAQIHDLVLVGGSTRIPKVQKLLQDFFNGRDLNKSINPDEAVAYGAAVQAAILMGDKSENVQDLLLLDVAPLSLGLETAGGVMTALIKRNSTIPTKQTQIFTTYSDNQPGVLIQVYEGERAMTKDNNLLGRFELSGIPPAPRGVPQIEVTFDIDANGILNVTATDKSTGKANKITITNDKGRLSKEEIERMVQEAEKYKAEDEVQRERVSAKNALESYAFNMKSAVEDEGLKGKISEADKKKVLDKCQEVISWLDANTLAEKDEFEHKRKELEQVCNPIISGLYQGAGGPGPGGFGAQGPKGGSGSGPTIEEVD

[14] = molecular target: T5, Heat shock 70 kDa protein 1A; assay: small-molecule inhibition of Hsp70 – biochemical, TR-FRET (AID 786)
[15] = molecular target: Induced myeloid leukemia cell differentiation protein Mcl-1 (Homo sapiens, UniProt Q07820); assay: blockers of MCL1 binding to BIM peptide – biochemical, fluorescence polarization, BIM-BH3 peptide, 1536-well, dose response (AID 2217)
Induced myeloid leukemia cell differentiation protein Mcl-1, sequence (Q07820 whole entry): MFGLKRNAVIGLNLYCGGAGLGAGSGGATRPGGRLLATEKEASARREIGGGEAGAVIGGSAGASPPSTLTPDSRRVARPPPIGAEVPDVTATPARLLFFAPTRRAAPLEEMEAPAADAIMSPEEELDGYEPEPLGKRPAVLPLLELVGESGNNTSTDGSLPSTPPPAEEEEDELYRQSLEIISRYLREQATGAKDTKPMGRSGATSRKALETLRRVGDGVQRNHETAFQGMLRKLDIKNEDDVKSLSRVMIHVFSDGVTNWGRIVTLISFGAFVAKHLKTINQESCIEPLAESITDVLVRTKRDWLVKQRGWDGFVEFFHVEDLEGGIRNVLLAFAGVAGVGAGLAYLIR

[16] = molecular target: Cyclin-dependent kinase 5/CDK5 activator 1 (Homo sapiens, UniProt Q00535); assay: blockade of human CDK5 activity – biochemical, cherry-picked samples, set 2, dose response (AID 504545)
Cyclin-dependent kinase 5/CDK5 activator 1, sequence (Q00535 whole entry): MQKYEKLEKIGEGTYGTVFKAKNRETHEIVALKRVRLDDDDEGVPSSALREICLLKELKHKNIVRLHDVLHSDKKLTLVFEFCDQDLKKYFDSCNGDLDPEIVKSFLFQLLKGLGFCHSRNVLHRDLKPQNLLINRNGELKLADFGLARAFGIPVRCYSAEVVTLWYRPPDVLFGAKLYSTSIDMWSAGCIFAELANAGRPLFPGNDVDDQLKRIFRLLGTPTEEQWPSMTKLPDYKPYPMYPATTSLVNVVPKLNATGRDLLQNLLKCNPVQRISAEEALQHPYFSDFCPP
Cyclin-dependent kinase 5/CDK5 activator 1, sequence (Q15078 whole entry, further chain): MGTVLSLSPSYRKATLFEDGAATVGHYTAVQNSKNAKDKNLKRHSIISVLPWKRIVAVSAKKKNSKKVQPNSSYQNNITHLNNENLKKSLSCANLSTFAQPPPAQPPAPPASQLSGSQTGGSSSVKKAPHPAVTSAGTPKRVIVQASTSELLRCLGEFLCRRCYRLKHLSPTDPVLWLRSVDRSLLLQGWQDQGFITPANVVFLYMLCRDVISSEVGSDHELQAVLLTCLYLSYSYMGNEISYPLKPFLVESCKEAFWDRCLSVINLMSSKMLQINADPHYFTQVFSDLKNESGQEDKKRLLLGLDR

[17] = molecular target: Luciferin 4-monooxygenase (Photinus pyralis, UniProt P08659); assay: inhibition of purified Photinus pyralis luciferase – biochemical, luminescence, dose response (AID 1891)
[18] = ADP-Glo luciferase signal interference – biochemical, luminescence, cherry-picked samples, set 2, artefact control for CDK5 inhibitor project, dose response (AID 504546); type: functional, cell-based
[19] = Luminescence Cell-Based Dose Confirmation HTS to Identify Inhibitors of Platelet Dense Granule Release. [Related pubchem assays: 1663 (Primary HTS), 1678 (Summary of Project)]; type: functional
[20] = molecular target: Serine/threonine-protein phosphatase (Homo sapiens, UniProt Q9BPW0); assay: Counterscreen for inhibitors of PP1: fluorescence-based biochemical high throughput dose response assay to identify inhibitors of Protein Phosphatase 5 (PP5). [Related pubchem assays: 2034 (Summary (PP5 inhibitors)), 1987 (PP5 inhibitors in singlate), 2235 (PP1 inhibitors in singlate)]
[21] = molecular target: Serine/threonine-protein phosphatase PP1-alpha catalytic subunit (Homo sapiens, UniProt P62136); assay: inhibition of protein phosphatase 1 activity – biochemical, fluorescence, dose response (AID 2403);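 also: phosphatase turnover of OMFP into fluorescent 3-O-methylfluorescein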
Serine/threonine-protein phosphatase PP1-alpha catalytic subunit, sequence (P62136 whole entry): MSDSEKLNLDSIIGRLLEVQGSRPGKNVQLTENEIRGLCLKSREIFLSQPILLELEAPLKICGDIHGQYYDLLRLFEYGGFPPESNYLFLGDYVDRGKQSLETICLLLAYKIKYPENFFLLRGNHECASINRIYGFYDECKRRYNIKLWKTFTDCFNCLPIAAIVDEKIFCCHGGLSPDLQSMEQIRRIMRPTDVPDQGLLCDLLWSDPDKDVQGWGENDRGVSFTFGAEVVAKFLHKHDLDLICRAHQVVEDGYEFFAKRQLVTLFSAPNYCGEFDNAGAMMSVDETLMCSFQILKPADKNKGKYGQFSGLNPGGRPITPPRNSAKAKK

[22] = molecular target: Acyl-homoserine lactone acylase PvdQ (Pseudomonas aeruginosa (strain LESB58), UniProt Q9I194); assay: PvdQ acylase enzyme activity blockers – biochemical, fluorescence, plate reader and imaging, cherry-picks, dose response (AID 493231)
Acyl-homoserine lactone acylase PvdQ, sequence (Q9I194 24-193 limits assumed): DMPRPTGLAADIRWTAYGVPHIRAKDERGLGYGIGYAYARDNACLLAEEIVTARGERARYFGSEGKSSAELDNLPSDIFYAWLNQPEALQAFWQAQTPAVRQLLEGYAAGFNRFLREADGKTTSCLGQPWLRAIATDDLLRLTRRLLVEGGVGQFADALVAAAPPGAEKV
Acyl-homoserine lactone acylase PvdQ, sequence (Q9I194 217-762 limits assumed): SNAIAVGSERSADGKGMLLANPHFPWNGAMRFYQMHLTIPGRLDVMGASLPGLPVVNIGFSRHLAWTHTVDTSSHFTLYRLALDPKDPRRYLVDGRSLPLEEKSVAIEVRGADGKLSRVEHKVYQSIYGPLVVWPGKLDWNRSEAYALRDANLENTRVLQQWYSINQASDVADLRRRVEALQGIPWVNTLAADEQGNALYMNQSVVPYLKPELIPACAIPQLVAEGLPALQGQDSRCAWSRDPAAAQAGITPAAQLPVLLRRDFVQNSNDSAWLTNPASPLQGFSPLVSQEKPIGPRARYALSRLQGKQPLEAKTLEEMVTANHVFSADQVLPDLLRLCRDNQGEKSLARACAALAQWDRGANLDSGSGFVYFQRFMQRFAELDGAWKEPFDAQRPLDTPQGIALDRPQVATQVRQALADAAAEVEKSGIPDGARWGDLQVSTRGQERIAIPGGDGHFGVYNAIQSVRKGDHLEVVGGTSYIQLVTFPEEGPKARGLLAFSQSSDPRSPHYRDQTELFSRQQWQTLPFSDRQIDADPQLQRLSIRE

COc1cc2oc(-c3ccccc3)cc(=O)c2cc1O
AC50 (Cytochrome P450 2C19): 5.01 µM (inconclusive)
AC50 (Cytochrome P450 2D6): 31.6 µM (inconclusive)

C=CCNC1=N[C@@H](c2ccccc2)C(C(=O)OC)=C(C)N1CC
IC50 [1]: 9.54 µM (active)
IC50 [2]: > 100 µM (inactive)
IC50 [3]: 5.62 µM (active)
IC50 [4]: 4.51 µM (active)

COc1ccc(C(c2cc3c(cc2O)OCO3)N2CCOCC2)cc1OC (configuration not stated)
IC50 [5]: 12.2 µM (not active)

Cc1cc(/C=C2/C(=N)N3C(=NC2=O)SN=C3S(C)(=O)=O)c(C)n1-c1ccccc1F
IC50 [6]: 50 µM (inactive)
EC50 [7]: > 55.7 µM (not active)
EC50 [8]: 1.19 µM (active)
EC50 [9]: > 55.7 µM (not active)

Cc1c(-n2cc(C(=O)c3cc(Cl)ccc3O)cc(C#N)c2=O)c(=O)n(-c2ccccc2)n1C
IC50 [10]: > 55.7 µM (not active)
IC50 [11]: 7.48 µM (active)
IC50 (Insulin-degrading enzyme): > 55.9 µM (not active)
IC50 [12]: 13 µM (active)

COc1ccc(Br)cc1/C=c1\sc2nc(-c3ccco3)nn2c1=O
IC50 (Bcl-2-like protein 1): > 109 µM (not active)
IC50 (Genome polyprotein): > 49.8 µM (not active)
IC50 [13]: > 100 µM (not active)
IC50 [14]: > 100 µM (not active)
IC50 [15]: 10.8 µM (not active)

COc1ccc(C(=O)O/N=C(/C)c2cccs2)cc1
AC50 [16]: 15.7 µM (active)
EC50 [17]: 0.517 µM (active)
AC50 [18]: 31.8 µM (active)
EC50 [19]: 1.34 µM (active)

COc1ccc2c(Cl)c(C(=O)N/N=C/c3ccncc3)sc2c1
IC50 [20]: > 67 µM (not active)
IC50 [21]: 6.48 µM (active)

COc1ccc(/C(C#N)=C/c2ccccn2)cc1
AC50 [22]: 19.9 µM (active)
